Here are results for five compounds from patent US20060223812A1, “Treating neurodegenerative conditions” (MAX-PLANCK-GESELLSCHAFT ZUR FORDERUNGDER WISSENSCHAFTEN, …, priority 2004, published 2006).

Values joined by “and” are separate entries in the source; they are usually repeats but may differ in a detail not shown here. Identical values can stand only once. Like-named read-outs stand apart in the source and are kept apart here.

What all share (type): biochemical
Assay [1] deals with T1, four repeat construct K18 (Homo sapiens, UniProt P10636).
T1 construct: made in house; host or cells: E. coli
T1 sequence (P10636 561-685 limits assumed): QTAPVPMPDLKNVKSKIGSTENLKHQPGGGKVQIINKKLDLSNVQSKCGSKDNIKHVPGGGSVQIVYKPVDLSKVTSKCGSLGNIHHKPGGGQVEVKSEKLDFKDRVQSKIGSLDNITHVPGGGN
The experiment in a line: Thioflavine S assay, inhibition of PHF formation, K18. Here is the method: (§1) Assembly of synthetic PHFs of tau protein (K19, 10 μM) was performed at 37° C. in the presence of polyanions (heparin; 5 μM) in 50 mM NH4Ac, pH 6.8. Assembly was followed either qualitatively by electron microscopy or quantitatively by fluorescence assay using thioflavine S. PHF-formation of tau isoforms htau23 and htau24 was carried out in PBS-buffer pH 7.4, 50 μM protein, and 12.5 μM heparin. The samples were incubated at 50° C. for 10 days. In the case of htau24 and K18, DTT was added at a final concentration of 1 mM each day in order to avoid intra-molecular disulfide crosslinking (Barghorn et al., 2000).
(§2) PHF formation was monitored by a thioflavine S fluorescence assay (Friedhoff et al., 1998a) adapted to a 384 well format. 60 μM of each substance was tested for its inhibitory effect on PHF formation. Using an automated pipetting system (Cybi-Well, CyBio, Jena, Germany) 50 mM NH4AC, 10 μM protein (K19), 60 μM compound and 5 μM heparin were mixed in 50 μl volume in a 384 well plate (black microtiter 384 plate round well, ThermoLabsystems, Dreiich, Germany) and incubated overnight at 37° C. As a control the protein was replaced with H2O to measure the possible fluorescence of the compounds. As a second control the reaction mixture without compound was treated in the same way.
(§3) After incubation with the compounds thioflavine S was added to the buffer to a final concentration of 20 μM and the signal was measured at excitation at 440 nm and emission at 521 nm in a spectrofluorimeter (Ascent; Labsystems, Frankfurt).
The four repeat construct K18 was tested under the same conditions (FIG. 2B). […] However, the decay of the curves of K18 is more gradual than those of K19, extending over 3-4 orders of magnitude of compound concentration (compare FIG. 2A).

The target in the next assay is T2, htau24 (Homo sapiens, UniProt P10636).
T2 construct: made in house; host or cells: E. coli
T2 sequence (P10636 1-383 isoform P10636-6): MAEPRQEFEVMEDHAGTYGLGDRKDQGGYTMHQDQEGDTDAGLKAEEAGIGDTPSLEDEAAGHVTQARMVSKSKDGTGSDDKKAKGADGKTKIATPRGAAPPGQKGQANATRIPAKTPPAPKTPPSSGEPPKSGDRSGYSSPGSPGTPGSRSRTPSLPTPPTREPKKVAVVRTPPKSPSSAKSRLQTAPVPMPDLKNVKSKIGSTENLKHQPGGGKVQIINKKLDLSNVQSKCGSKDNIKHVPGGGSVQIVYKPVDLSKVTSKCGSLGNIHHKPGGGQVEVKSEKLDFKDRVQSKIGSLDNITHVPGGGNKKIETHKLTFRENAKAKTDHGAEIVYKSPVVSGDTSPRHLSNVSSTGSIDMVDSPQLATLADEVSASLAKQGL
The experiment in a line: Thioflavine S assay, inhibition of PHF formation, htau24. The settings on record: for IC50: ThS fluorescence, read-out: Inhibition of tau aggregation IC50, hTau24; for effect on PHF formation, htau24: compared to htau23; for inhibition at 60 µM: read-out: inhibition of PHF formation, htau24. Here is the method:
as §1

Another assay addresses K18/ΔK280 (Homo sapiens, UniProt P10636, DEL598-598). The experiment in a line: Thioflavine S assay, inhibition of PHF formation, K18/ΔK280 without heparin. The source says:
All the polymerisation reactions described so far used heparin as a cofactor for inducing PHF assembly because otherwise the process would be impracticably slow (Goedert et al., 1996; Perez et al., 1996). In order to rule out a potential influence of heparin on the efficiency of the compounds the 4-repeat construct K18/ΔK280 which carries one of the mutations observed in frontotemporal dementia (van Swieten et al., 1999) and is capable of polymerising into PHFs without a polyanionic cofactor (von Bergen, 2001) (FIG. 2E) was used. […] The differences in inhibition effects for K18 (with heparin) and K18/ΔK280 (without heparin) could be caused either by a difference in conformation and/or protein-protein interactions, or perhaps by an interaction between the compound and the cofactor heparin.

The next assay concerns the target T3, htau23 (Homo sapiens, UniProt P10636).
T3 construct: made in house; host or cells: E. coli
The experiment in a line: Thioflavine S assay, inhibition of PHF formation, htau23. The following applies: for inhibition at 60 µM / inhibition at 0.1 µM: read-out: inhibition of PHF formation, htau23; for effect on PHF formation, htau23: low concentration. The protocol: as §1

Another assay addresses T4, tau construct K19 (Homo sapiens, UniProt P10636).
T4 construct: construct K19 containing three repeats; made in house; host or cells: E. coli
The assay is described as follows: Thioflavine S assay, inhibition of PHF formation, K19. The following applies: ThS fluorescence, 10 μM K19, heparin; read-out: Inhibition of tau aggregation IC50, K19. The protocol:
as §1, §2, §3
Inhibitory effects begun to appear at concentrations around 0.1 μM (ratio of protein to compound=100), and reached nearly complete inhibition at 100 μM compound concentration (ratio protein/compound=0.1). Overall, the curves of FIG. 2A decay fairly steeply over a compound concentration range of 2-3 orders of magnitude.
(A) extent of aggregation of tau construct K19 (10 μM) plotted vs. inhibitor concentration (range 1 fM-60 μM). The extent of aggregation was measured by the thioflavin S fluorescence assay and the degree of inhibition was plotted as percentage of control. All measurements were performed in triplicates.

The target of a further assay is T5, PHFs from htau23 (Homo sapiens, UniProt P10636).
T5 construct: made in house; host or cells: E. coli
T5 sequence (P10636 1-352 isoform P10636-2): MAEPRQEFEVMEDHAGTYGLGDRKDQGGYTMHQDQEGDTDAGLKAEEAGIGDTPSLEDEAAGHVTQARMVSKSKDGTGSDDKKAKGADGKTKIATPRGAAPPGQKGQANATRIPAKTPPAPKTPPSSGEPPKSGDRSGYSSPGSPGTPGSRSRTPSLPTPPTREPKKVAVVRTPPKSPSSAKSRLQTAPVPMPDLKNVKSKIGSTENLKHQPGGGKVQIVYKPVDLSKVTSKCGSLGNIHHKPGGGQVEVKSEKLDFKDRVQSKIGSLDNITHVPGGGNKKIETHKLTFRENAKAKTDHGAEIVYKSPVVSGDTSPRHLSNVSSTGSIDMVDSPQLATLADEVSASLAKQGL
The experiment in a line: Thioflavine S assay, depolymerisation of pre-formed PHFs, htau23. Here is the method:
(§4) The ThS assay was used to analyse the ability of the five compounds (see Example 4) to depolymerise pre-formed PHFs made from the repeat domain constructs K19 and K18 as well as from isoforms htau23 and htau24, containing 3 or 4 repeats, respectively.
PHFs assembled from the full length three repeat isoform htau23 were also sensitive to disaggregation (FIG. 4C). The DC50 values ranged from 7.0 to 60 μM.
(§5) Tau constructs and isoforms K19, K18, hTau23, hTau24 (10 μM) were first aggregated into PHFs for 48 hours in the presence of 2.5 μM heparin (except K18/ΔK280) and the polymers separated from the soluble tau by centrifugation of 1 h at 100,000 g, redissolved and then exposed to the inhibitors overnight at 37° C. at the indicated concentrations (range 0.001-200 μM).

The target of a further assay is T6, PHFs from htau24 (Homo sapiens, UniProt P10636).
T6 construct: made in house; host or cells: E. coli
T6 sequence (P10636 1-383 isoform P10636-6): as the sequence (P10636 1-383 isoform P10636-6) above
The assay is described as follows: Thioflavine S assay, depolymerisation of pre-formed PHFs, htau24. Here is the method: as §4, §5

[2] abbreviates: ThS fluorescence, K18, heparin, read-out: Inhibition of tau aggregation IC50, K18.
Setting [3] is: ThS fluorescence, read-out: Inhibition of tau aggregation IC50, K18/ΔK280.
[4] abbreviates: ThS fluorescence, read-out: Inhibition of tau aggregation IC50, hTau23.
[5] abbreviates: ThS fluorescence, read-out: Depolymerisation of PHFs DC50, hTau23.
[6] abbreviates: ThS fluorescence, pre-formed PHFs; read-out: Depolymerisation of PHFs DC50, hTau24.

T3 sequence (P10636 1-352 isoform P10636-2): as the sequence (P10636 1-352 isoform P10636-2) above
K18/ΔK280, sequence (P10636 with tags, fused parts or gaps DEL598-598): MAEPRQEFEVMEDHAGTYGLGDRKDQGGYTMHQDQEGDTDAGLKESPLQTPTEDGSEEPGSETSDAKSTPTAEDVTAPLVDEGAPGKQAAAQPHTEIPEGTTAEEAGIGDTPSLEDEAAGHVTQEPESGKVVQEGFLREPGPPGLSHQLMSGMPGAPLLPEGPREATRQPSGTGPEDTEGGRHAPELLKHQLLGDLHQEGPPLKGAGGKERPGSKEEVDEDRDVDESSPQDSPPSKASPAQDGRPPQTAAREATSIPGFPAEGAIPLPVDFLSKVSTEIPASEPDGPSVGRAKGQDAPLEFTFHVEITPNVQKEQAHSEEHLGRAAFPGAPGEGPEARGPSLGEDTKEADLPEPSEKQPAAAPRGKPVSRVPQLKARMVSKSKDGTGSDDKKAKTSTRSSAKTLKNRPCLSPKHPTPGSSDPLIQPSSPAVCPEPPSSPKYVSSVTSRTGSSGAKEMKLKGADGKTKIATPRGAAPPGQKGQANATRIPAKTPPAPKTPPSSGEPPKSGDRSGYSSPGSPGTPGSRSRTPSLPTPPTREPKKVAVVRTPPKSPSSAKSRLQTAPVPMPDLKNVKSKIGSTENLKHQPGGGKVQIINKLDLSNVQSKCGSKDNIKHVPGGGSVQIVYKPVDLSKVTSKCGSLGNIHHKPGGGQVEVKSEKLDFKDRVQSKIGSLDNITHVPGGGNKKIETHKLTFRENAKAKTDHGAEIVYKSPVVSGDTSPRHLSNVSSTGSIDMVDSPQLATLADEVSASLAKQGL
T4 sequence (P10636 with tags, fused parts or gaps isoform P10636-2 limits assumed): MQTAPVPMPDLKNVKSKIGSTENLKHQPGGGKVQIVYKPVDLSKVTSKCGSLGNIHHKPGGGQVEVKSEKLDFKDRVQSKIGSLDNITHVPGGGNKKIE

Take `O=C(c1ccccc1)c1ccc(O)c(O)c1O` [PHF005, 1-Phenyl-1-(2,3,4-trihydroxy-phenyl)-methanone]: the IC50 is 2.7 µM in assay [1] (setting [2]); greater than 100 µM on htau24; greater than 60 µM on K18/ΔK280 (setting [3]); 1.1 µM at htau23 (setting [4]); 6 µM on tau construct K19. In addition, on htau24, the “effect on PHF formation, htau24” value is reported as “only a small effect”. For the same compound, on K18/ΔK280, the “inhibition of filament formation, K18/ΔK280” value was “failed nearly completely”. For the same compound, the inhibition (commonly the share of the control response that was lost under treatment) at 60 µM on htau23 (60 μM compound) was roughly 50%. In addition, the “effect on PHF formation, htau23” value on htau23 is on record as “only a slight effect”. Also, the DC50 on PHFs from htau23 (setting [5]) was greater than 60 µM; at PHFs from htau24 (setting [6]), 10.8 µM.

For the compound `O=C1c2ccc(O)c(O)c2C(=O)c2c(O)ccc(O)c21` [PHF016, 1,2,5,8-Tetrahydroxy-anthraquinone], the IC50 was 0.6 µM in assay [1] (setting [2]); greater than 60 µM on htau24; 1.3 µM at K18/ΔK280 (setting [3]); 1 µM at htau23 (setting [4]); 6.8 µM on tau construct K19. The “effect on PHF formation, htau24” value at htau24 was “only a small effect”. The inhibition at 60 µM on htau23 (60 μM compound) was roughly 50%. In addition, the “effect on PHF formation, htau23” value on htau23 was “only a slight effect”. The DC50 on PHFs from htau23 (setting [5]) is greater than 60 µM; at PHFs from htau24 (setting [6]), 39.2 µM.

`COc1cccc2c1C(=O)c1c(O)c3c(c(O)c1C2=O)CC(O)(C(C)=O)CC3OC1CC(N)C(O)C(C)O1` (centres unmarked) [Daunorubicin, 8-Acetyl-10-(4-amino-5-hydroxy-6-methyl-tetrahydro-pyran-2-yloxy)-6,8,11-trihydroxy-1-methoxy-7,8,9,10-tetrahydro-naphthacene-5,12-dione, reference compound]: the IC50 in assay [1] (setting [2]) is 0.3 µM; at htau24, 3.4 µM; on K18/ΔK280 (setting [3]), 48 µM and 48.1 µM; at htau23 (setting [4]) it was 0.1 µM; on tau construct K19, 1 µM. In addition, the inhibition at 60 µM at htau24 was 70 to 90%; at htau23, roughly 90%. Besides, the inhibition at 0.1 µM on htau23 is roughly 50%. For the same compound, the DC50 on PHFs from htau23 (setting [5]) is 8.2 µM; at PHFs from htau24 (setting [6]) it was greater than 60 µM. Also, the “depolymerisation of htau24 filaments” value on PHFs from htau24 is “only weak PHF breakers”.

`COc1cccc2c1C(=O)c1c(O)c3c(c(O)c1C2=O)CC(O)(C(=O)CO)CC3OC1CC(N)C(O)C(C)O1` (centres unmarked) [Adriamycin, 10-(4-Amino-5-hydroxy-6-methyl-tetrahydro-pyran-2-yloxy)-6,8,11-trihydroxy-8-(2-hydroxyethanoyl)-1-methoxy-7,8,9,10-tetrahydro-naphthacene-5,12-dione, reference compound]: the IC50 was determined as 0.1 µM in assay [1]; 2.7 µM on htau24; 3.9 µM on K18/ΔK280 (Inhibition of tau aggregation IC50, K18/ΔK280, ThS fluorescence); 0.2 µM against htau23; 17.6 µM at tau construct K19. Moreover, the DC50 is 13.2 µM on PHFs from htau23 (read-out: Depolymerisation of PHFs DC50, hTau23, ThS fluorescence) and greater than 60 µM at PHFs from htau24 (read-out: Depolymerisation of PHFs DC50, hTau24; ThS fluorescence, pre-formed PHFs).

For the compound `Cc1cc(O)c2c(c1)C(=O)c1cc(O)cc(O)c1C2=O` [Emodin, 1,3,8-Trihydroxy-6-methyl-anthraquinone], the IC50 in assay [1] (setting [2]) worked out at 0.3 µM; at htau24 it was 1.8 µM; on K18/ΔK280 (setting [3]), 1.9 µM; on htau23 (setting [4]), 0.2 µM; at tau construct K19 it was 2.4 µM. Further, the values for the inhibition at 60 µM on htau24 (60 μM compound) and at htau23 (60 μM compound) were 70 to 90% and roughly 90%, respectively. The inhibition at 0.1 µM at htau23 (0.1 μM compound) is roughly 50%. In addition, the DC50 at PHFs from htau23 (setting [5]) was 7 µM; at PHFs from htau24 (setting [6]), greater than 60 µM. Further, the “depolymerisation of htau24 filaments” value on PHFs from htau24 is reported as “only weak PHF breakers”.
